Here are results for one molecule from patent US7695948B2, “Antibodies that bind TNF-α converting enzyme” (Immunex Corporation, priority 1995, dated 2010).

The experiment deals with T1, TACE (Homo sapiens, UniProt P78536).
T1 construct: The TACE was isolated and purified from the membranes of the human monocytic cell line, THP-1; endogenous in cells; host or cells: THP-1 human monocytic cell line (ATCC TIB 202), stimulated to produce TNF-α; Enzyme was solubilised from plasma membranes and purified by chromatography
T1 sequence (P78536 215-824): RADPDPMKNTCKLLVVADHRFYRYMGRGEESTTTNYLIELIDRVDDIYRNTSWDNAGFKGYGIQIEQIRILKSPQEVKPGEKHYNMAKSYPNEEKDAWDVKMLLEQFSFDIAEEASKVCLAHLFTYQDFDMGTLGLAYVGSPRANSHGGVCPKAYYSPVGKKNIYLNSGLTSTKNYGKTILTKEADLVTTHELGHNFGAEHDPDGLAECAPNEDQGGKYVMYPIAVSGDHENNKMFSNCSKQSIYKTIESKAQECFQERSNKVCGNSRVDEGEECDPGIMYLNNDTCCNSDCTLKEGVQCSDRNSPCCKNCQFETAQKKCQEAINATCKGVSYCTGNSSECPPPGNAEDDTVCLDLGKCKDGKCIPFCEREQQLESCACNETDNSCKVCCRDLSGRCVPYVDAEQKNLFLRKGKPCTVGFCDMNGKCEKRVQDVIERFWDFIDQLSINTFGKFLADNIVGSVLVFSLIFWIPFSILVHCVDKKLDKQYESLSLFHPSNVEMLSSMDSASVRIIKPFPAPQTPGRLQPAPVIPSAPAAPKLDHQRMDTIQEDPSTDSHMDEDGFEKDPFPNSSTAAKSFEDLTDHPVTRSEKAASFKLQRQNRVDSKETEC
Description: TACE activity assay (cleavage of TNF-α peptide substrate, HPLC). The class given is biochemical. The conditions noted are these: dithiothreitol included in plasma membrane isolation from THP-1 cells. The procedure:
As further described in Example 1, infra, a quantitative assay for TACE also may be used which assay involves incubating the peptide substrate, at about 1 mM, with TACE at 37° C. for a fixed period of time; stopping the reaction by the addition of an acid or a metal chelator; and determining the extent of cleavage by HPLC analysis.
This Example describes a method for purifying TACE. The TACE was isolated and purified from the membranes of the human monocytic cell line, THP-1, (ATCC no. TIB 202) that had been stimulated to produce TNF-α. THP-1 cells were chosen because they produce more TNF-α than HL-60 cells, a more commonly used human monocytic cell line. […]
This material was incubated at 37° C. for at least 4 hours with the TACE eluted from the DEAE-Sepharose, that had been treated with 1 mM N-methoxysuccinyl-Ala-Ala-Val -chloro-methylketone, 10 μg/ml leupeptin, and 1 mg/ml α1-protease inhibitor, all of which are commercially available. […] Based on this observation, a quantitative assay was established: the peptide, at 1 mM, was incubated with the enzyme at 37° C. for a fixed period of time, in the presence of 0.1 mM dichloroisocoumarin, 1 mM methoxysuccinyl-Ala-Ala-Pro-Val-chloromethyl-ketone, 10 μg/ml leupeptin, 10 μM bestatin, and 1 mg/ml α1-protease inhibitor (Sigma), all of which are commercially available. […]

Turning to `O[C@H](CS)[C@H](O)CS` (racemic) [dithiothreitol], the TACE activity result is on record as “blocks TACE activity”.
